According to patent US20250304560A1, “MODULATORS OF NLRP3 INFLAMMASOME AND RELATED PRODUCTS AND METHODS” (Neumora Therapeutics, Inc., priority 2022, published 2025):
Read-outs that look alike come from different tables or passages of the source.

Key:
hERG channels = molecular target: T1, hERG channels (Homo sapiens, UniProt Q12809); assay: hERG assay, whole-cell patch-clamp in CHO-hERG cells; type: cell-based; conditions: for IC50: whole-cell patch-clamp, CHO-hERG cells
T1 construct: host or cells: CHO-hERG cells
T1 sequence (Q12809 whole entry): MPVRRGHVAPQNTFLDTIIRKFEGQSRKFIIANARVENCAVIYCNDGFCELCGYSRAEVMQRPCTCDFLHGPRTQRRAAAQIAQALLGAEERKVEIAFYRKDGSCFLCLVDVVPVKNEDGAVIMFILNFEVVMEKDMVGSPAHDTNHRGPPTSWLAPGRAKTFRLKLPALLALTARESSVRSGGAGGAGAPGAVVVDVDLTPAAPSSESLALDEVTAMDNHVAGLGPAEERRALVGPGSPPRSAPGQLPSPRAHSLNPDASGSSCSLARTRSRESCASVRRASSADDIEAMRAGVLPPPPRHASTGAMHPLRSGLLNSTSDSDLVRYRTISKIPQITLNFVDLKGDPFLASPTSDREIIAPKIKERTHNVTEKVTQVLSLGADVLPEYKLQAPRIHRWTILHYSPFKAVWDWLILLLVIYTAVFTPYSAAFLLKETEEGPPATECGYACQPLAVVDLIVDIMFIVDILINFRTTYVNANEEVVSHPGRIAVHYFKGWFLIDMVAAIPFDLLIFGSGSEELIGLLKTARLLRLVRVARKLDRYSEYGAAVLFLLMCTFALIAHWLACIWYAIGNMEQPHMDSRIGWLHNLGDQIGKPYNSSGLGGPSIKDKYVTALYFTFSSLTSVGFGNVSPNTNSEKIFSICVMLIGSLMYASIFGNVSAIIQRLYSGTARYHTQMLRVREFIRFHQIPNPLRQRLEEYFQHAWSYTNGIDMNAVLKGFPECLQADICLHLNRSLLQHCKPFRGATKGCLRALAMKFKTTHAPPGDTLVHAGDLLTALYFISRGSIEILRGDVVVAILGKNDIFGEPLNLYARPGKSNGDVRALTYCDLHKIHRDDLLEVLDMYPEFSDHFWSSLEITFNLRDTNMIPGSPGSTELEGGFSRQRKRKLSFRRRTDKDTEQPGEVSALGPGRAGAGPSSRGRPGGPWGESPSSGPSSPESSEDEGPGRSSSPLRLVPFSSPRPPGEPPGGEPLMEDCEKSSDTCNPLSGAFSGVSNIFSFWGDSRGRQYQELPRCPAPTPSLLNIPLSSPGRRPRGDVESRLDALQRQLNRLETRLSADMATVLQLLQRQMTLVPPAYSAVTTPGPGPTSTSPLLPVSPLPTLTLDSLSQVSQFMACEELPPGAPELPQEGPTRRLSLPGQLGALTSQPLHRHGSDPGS
Experimental: CHO-hERG cells (Sophion Biosciences (Ballerup, Denmark), subcultured and frozen in WuXi AppTec (Suzhou) Co., Ltd.), stored in liquid nitrogen, were tested and determined to be free from mycoplasma contamination. Cells were not used after the 30th passage. CHO-hERG cells were cultured in a humidified incubator of 5% CO2 (4% to 8%) in air at 37° C. (±2° C.). The cells were recovered with recovery medium (F12 medium with 10% fetal bovine serum), subcultured in complete medium (F12 medium, supplemented with 10% fetal bovine serum, 1% Geneticin® selective antibiotic (G418), 89 μg/mL Hygromycin B (HB)), and the culture medium was switched to recovery medium in the last subculture before patch-clamp experiment.
To determine the compounds' IC50, select compounds (“test articles”) were dissolved into DMSO, and then diluted with ECS to get working solutions. Five concentrations of 0.3, 1, 3, 10, and 30 μM were tested. Two replicate cells for each concentration were tested.
Exponentially growing CHO-hERG cells were collected and suspended in extracellular solution for use. The hERG current was recorded at physiological temperature (33.0° C. to 37.0° C.) using whole-cell patch-clamp techniques. Output signals from the patch-clamp amplifier were digitized and low-pass filtered at 2.9 KHz. The recording was controlled with Patchmaster Pro software. The recording chamber with seeded cells was mounted on an inverted microscope stage. A cell in the recording chamber was randomly selected for testing. The cell was continuously perfused from the perfusion system. A micropipette filled with ICS was used as recording electrode in the manual patch-clamp study. The micropipette was prepared on the day of the patch-clamp experiment using glass capillaries (BF150-117-10, SUTTER INSTRUMENT USA). The pipette resistance (Rp) was within 2 to 5 MΩ with ICS filled. From the holding potential of-80 mV, the voltage was increased to +60 mV for 850 ms to open the hERG channels. After that, the voltage was decreased to-50 mV for 1275 ms, causing a “rebound” or tail current, the peak tail current was measured and collected for data analysis. Finally, the voltage was decreased to the holding potential (−80 mV). This command voltage protocol was repeated every 15 s continuously during the test article application.
During the initial recording period with vehicle control working solution, the peak tail current amplitude was monitored until it had been stable for at least 3 sweeps. Cells were then perfused with test article/positive control working solutions until the peak tail current amplitude reached steady state. Steady state was considered reached when three consecutive super-imposable peak tail currents were collected. At this point, cells were once again perfused with next concentration of test article. One or more test articles/positive control or different concentrations of the same test article were tested on each cell with vehicle control washout until the current amplitude returned to values at least 80% of those measured before application of test article. […] At least 2 replicate cells for each concentration were tested. […] (Milnes, J. T., et al.)
Seal criteria: When acquiring whole-cell configuration, a holding potential (e.g.,-80 mV) was applied while membrane parameters were collected (Cm, Rm and Rs). A “good” whole-cell recording was generally defined as: series resistance (Rs) was less than 10 MΩ; membrane resistance (Rm) was more than 500 MΩ and membrane capacitance (Cm) was less than 100 pF. Current amplitude: The peak current amplitude must be between 400 pA and 5000 pA before the test article/positive control application; otherwise the cell was discarded. Leak criteria: At-80 mV holding potential, the absolute leak current value must be less than 200 pA. The amplitude of current was adjusted with leak current at-80 mV. The sweeps which absolute leak current value was more than 200 pA was not used in data analysis.

IL-6 = IL-6 AlphaLISA in LPS-primed THP1 macrophages; conditions: for IC50: Homo sapiens
NLRP3 inflammasome = NLRP3 inflammasome (Homo sapiens, UniProt Q96P20); assay: NLRP3 inflammasome activation in THP1 macrophages, IL-1β AlphaLISA; conditions: for IC50: THP1 macrophages
Chain of NLRP3 inflammasome (Q96P20 whole entry): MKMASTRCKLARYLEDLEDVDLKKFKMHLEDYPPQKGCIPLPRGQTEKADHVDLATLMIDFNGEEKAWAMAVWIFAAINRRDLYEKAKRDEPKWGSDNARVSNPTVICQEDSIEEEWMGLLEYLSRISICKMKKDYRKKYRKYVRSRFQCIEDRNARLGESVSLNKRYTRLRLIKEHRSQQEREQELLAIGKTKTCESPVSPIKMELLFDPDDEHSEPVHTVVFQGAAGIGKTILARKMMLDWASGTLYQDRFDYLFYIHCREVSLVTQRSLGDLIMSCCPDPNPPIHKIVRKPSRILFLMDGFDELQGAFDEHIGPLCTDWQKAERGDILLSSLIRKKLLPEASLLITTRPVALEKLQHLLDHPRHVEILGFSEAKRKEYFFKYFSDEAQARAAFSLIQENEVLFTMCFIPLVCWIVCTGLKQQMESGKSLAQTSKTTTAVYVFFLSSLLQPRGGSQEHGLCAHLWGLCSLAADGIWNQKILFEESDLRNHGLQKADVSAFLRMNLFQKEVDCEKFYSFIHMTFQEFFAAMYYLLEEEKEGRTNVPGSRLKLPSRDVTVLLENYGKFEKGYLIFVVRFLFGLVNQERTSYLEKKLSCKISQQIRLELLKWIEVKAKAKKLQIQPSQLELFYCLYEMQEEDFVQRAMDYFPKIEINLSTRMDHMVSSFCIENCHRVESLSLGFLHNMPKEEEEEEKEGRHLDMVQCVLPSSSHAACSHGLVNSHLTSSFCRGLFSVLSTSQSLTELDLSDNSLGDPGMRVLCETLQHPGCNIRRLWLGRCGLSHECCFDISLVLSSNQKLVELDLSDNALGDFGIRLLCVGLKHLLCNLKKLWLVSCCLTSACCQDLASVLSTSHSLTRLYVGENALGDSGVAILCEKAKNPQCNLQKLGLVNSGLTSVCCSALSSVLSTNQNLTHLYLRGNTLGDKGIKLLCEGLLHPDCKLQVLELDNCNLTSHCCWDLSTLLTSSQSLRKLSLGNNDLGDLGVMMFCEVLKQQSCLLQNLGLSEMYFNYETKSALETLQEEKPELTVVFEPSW

[1] = THP-1, read-out: IL-6 Activity (μM), THP1 macrophages, PMA, LPS priming, nigericin 6.7 uM
[2] = THP-1, read-out: IL-6 Activity, LPS-primed THP1 macrophages, Table 11 comparison
[3] = IL-1β Activity (nM), PMA, LPS priming, nigericin 6.7 uM activation
[4] = IL-1β Activity, Table 11 comparison

IC50 (IL-6; [1]) | IC50 (IL-6; [2]) | IL-1ß activity (in words) (NLRP3 inflammasome) | IC50 (NLRP3 inflammasome; [3]) | IC50 (NLRP3 inflammasome; [4]) | SMILES | hERG inhibition (in words) (hERG channels) | IC50 (hERG channels; 33.0-37.0 °C, Table 10) | IC50 (hERG channels; Table 11 comparison) | IL-6 activity (in words) (IL-6)
5 to 10 µM | 5 to 10 µM | potent | 1 to 10 nM | 1 to 10 nM | Cc1cc(N[C@@H]2CCCN(C)C2)nnc1-c1ccccc1O [compound 2, 2-[4-methyl-6-[[(3R)-1-methyl-3-piperidyl]amino]pyridazin-3-yl]phenol] | unexpectedly low | > 30 µM | > 30 µM | potent
5 to 10 µM | 5 to 10 µM | potent | < 1 nM | < 1 nM | Cc1cc(N[C@@H]2CCCN(C)C2)nnc1-c1ccc(C#N)cc1O [compound 51] | unexpectedly low | > 30 µM | > 30 µM | potent
